Measured values taken from patent US20230265167A1, “COMPOSITIONS HAVING NEUROREGENERATIVE APPLICATIONS” (GRIFOLS WORLDWIDE OPERATIONS LIMITED, priority 2020, published 2023).
“Also recorded” adds a separate entry of the source.

Assays:
[1] = tested on: C57BL/6J mice with transient MCAo; test: Neurogenesis in dentate gyrus of mice after transient MCAo (BrdU/DCX, BrdU/NeuN immunohistochemistry); assay type: in vivo, mouse; details: 350 mg/kg i.p. daily 7 days, vs saline; for number of new neuroblasts (BrdU+/DCX+ cells): FIG. 9A, two-week period; for number of newly formed mature neurons (BrdU+/NeuN+ cells): FIG. 9B, after 4 weeks
Protocol: (§1) C57BL/6J mice (ca. 20 g) were anaesthetized under isoflurane and, after dissection, a 6.0 silicon-coated monofilament suture was inserted into the external carotid artery to occlude the middle cerebral artery (MCAo). The occlusion was carried out for 60 minutes under temperature control.
(§2) Only animals with a ‘neuroscore’ of 4 or greater were considered for further testing (n=8-10 animals/group). At six hours post-occlusion, mice were injected daily with 350 mg/kg of Apo-transferrin (i.p.) or an equal volume of saline for a total of seven days, as well as with 50 mg/kg Bromodeoxyuridine (BrdU; Sigma-Aldrich Chemical, St. Louis, Mo.), both articles delivered by intraperitoneal administration. Weight changes were monitored daily.
At the times indicated in Example 9, brains were prepared for analysis by transcardial perfusion with ice cold heparinized saline (heparin at 2.5 IU/ml) in order to remove blood from the brains. Fresh brains were removed leaving the right cerebellum attached to whole left-brain hemisphere to help orientate the brain block in sectioning. The whole left hemisphere block was placed in 4% paraformaldehyde in 0.1 M phosphate buffer (PB) for 24 hours at +4° C., then cryoprotected in 30% sucrose in 0.1 M PB for 2-3 days on a shaker at +4° C. The brain was then blotted to remove excess liquid, placed on top of a vial cork and frozen on top of liquid nitrogen; the block was then stored at −80° C. until cryostat sections are obtained. Neurogenesis was evaluated by immunohistochemistry using antibodies against BrdU and Doublecortin (DCX) to quantify new neuroblasts or against BrdU and NeuN to quantify new neurons in the dentate gyrus of the brain.

SH-SY5Y cells = test: Cell number / proliferation of SH-SY5Y cells by imaging; assay type: cell-based, human
Protocol: Undifferentiated SH-SY5Y cells were seeded into 96 well clear bottom plates in media containing 0.1% FBS. A serum-free base media was utilized as recommended by the supplier for SH-SY5Y cells (Sigma, Cat #94030304-1VL). Twenty-four hours after seeding cells, a 3× stock solution of ApoTf, final concentrations indicated on the x-axis, in serum free base media was added to the cells. ApoTf was obtained and purified from pooled human plasma and dosed at a final concentration of 0.2 mg/mL.
Cells were allowed to differentiate for 6 days. Neurite growth was assessed by imaging and image analysis. At the time of analysis, a 10× solution of Tubulin Tracker (Molecular Probes, T34075) and Hoechst 33342 (Molecular Probes #H3570) nuclear stain was prepared.
Briefly, Tubulin Tracker dissolved in DMSO was diluted 1:1 with Pluronic F-127 and further diluted into HBSS to generate a 10× solution. Hoechst 33342 was added to the HBSS-Tubulin Tracker solution at 10 μg/mL to generate a 10× nuclear stain. […]
After obtaining images, the MetaExpress Neurite Outgrowth analysis module (Molecular Devices) was used to identify cells, cell bodies, and quantify neurites. […] The Outgrowth Fold Change was determined by setting the untreated control cells to a value of 1 with all other treatments shown relative to untreated control.

[2] = tested on: primary human brain cortex-derived neural progenitor cells; test: Differentiation of primary human neural progenitor cells (β-III-tubulin / GFAP staining); assay type: cell-based; details: 0.8 mg/mL, 72 hours
Protocol: Neural progenitor cells maintained as neurospheres were obtained from Lonza (PT-2599). Cells were thawed from a frozen vial of neurospheres and cultured in Human NeuroCult™ NS-A Complete Proliferation media (Stemcell Technologies) for 2 weeks. Neurospheres were dissociated to single cells and plated in Laminin coated wells of assay plates. The neural progenitor cells were seeded in NeuroCult™ NS-A Basal media containing 1/10th concentration of the recommended proliferation supplements, in the absence or presence of ApoTf (0.8 mg/mL) for 72 hours. At the time of analysis, cells were fixed with paraformaldehyde, stained for β-III-tubulin (R&D Systems, MAB1195) and GFAP (Invitrogen, PA3-16727), and imaged on a Molecular Devices Nano imaging instrument. Image analysis was performed by assessing the relative numbers of cells staining positive for β-III-tubulin or GFAP. Values for the indicated conditions are shown with standard deviations as “% β-III-Tubulin Positive” cells (FIG. 2A) or “% GFAP Positive” cells (FIG. 2B).

[3] = tested on: C57BL/6J mice with transient MCAo; test: Novel object recognition test (NORT) after transient MCAo; assay type: in vivo, mouse; details: FIG. 10C, at least two weeks, vs saline
Protocol: as §1, §2
Mice were prepared as indicated in Example 9 above and were subjected to assessments at 3 days and 1, 2, 3, 4 weeks post-MCAo, as indicated (n=8-10 animals/group). Motor coordination (i.e. equilibrium behavior and locomotor ability as a function of cortico-striatal function) was assessed using a rotarod test. Learning and memory capacity were measured using the NORT (novel object recognition test; for example, Anglada-Huguet et al., 2014, Molecular Neurobiology, vol. 49, pages 784-795; Denninger et al., 2018, J. Vis. Exp., vol. 141, e58593).
The time that it takes an animal to fall (Latency to fall) from the rotarod is shown vs time after MCAo. The motor skills of the mice reflect those of the neuroscore in FIG. 10A, with an increased rate of improvement in motor/balance skills, as measured by the amount of time animals stayed on the rotarod apparatus. […] The Discrimination (%) is a description of an animal's memory, as measured by the percentage of time in which an animal investigates newly presented objects compared to the time they investigate previously presented objects. Animals with better cognition and memory spend more time with the novel object due to memories of the object previously presented to the animal; this is shown as increased % Discrimination.

Substance: apo-transferrin: iron-free form of transferrin protein, obtained and purified from pooled human plasma
- number of new neuroblasts (BrdU+/DCX+ cells) [1]: increases the amount of neurogenesis
- number of new neuroblasts (BrdU+/DCX+ cells) ([1]; listed as ApoTf): increases the number of neuroblasts
- number of newly formed mature neurons (BrdU+/NeuN+ cells) [1]: increases the amount of neurogenesis
- number of newly formed mature neurons (BrdU+/NeuN+ cells) ([1]; listed as ApoTf): number of newly formed mature neurons are higher
- cell numbers (cell proliferation) (SH-SY5Y cells; FIG. 1B, up to 0.8 mg/mL): induces a concentration-dependent increase in cell numbers
- cell proliferation, visual comparison to untreated control (SH-SY5Y cells; FIG. 1C, 0.1 mg/mL): profound effect on promoting cell proliferation
- % β-III-Tubulin Positive cells (neurons) ([2]; FIG. 2A): dramatically increases the percentage of cells differentiated to neurons; also recorded: induces primary human neural progenitor cells to become β-III-tubulin protein positive neurons
- % GFAP Positive cells (astrocytes) ([2]; FIG. 2B): dramatically increases; also recorded: GFAP protein positive astrocytes cells
- learning recognition / Discrimination (%) in NORT [3]: higher cognition
- learning recognition / Discrimination (%) in NORT ([3]; listed as ApoTf): increases learning recognition functions
- learning recognition / Discrimination (%) in NORT ([3]; listed as apoTf): higher ‘percent Discrimination’
